Reference: US8987258B2 (priority 2008, dated 2015)

Biological target: T1, SIRT1 (Homo sapiens, UniProt Q96EB6)
T1 sequence (Q96EB6 1-747): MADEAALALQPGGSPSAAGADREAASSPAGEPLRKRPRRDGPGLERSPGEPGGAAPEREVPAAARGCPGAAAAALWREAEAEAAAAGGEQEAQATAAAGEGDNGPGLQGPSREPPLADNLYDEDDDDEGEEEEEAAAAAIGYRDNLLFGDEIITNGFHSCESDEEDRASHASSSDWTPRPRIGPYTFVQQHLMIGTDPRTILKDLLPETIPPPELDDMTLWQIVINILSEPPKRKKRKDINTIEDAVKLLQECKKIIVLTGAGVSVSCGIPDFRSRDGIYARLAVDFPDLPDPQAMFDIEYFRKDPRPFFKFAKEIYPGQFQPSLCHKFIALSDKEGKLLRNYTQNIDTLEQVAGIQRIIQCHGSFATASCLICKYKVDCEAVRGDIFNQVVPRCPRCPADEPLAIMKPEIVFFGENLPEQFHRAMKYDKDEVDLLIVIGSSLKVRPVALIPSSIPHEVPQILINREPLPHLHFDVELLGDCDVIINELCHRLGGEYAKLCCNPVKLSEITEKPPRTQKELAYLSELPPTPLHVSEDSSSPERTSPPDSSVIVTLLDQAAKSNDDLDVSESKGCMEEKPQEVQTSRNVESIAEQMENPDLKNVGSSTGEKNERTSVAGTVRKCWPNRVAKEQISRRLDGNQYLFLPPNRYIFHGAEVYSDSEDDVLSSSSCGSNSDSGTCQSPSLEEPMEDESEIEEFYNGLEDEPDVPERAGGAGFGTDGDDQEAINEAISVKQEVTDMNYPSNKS
Assay: Mass spectrometry based SIRT1 deacetylase activation assay
Type: biochemical
Details: for EC1.5 μM: 0.5 μM peptide substrate, 120 μM βNAD+, 10 nM SIRT1, 25 min, 25° C.; for Emax: 25 min, mass spectrometry assay, read-out: % Fold Act. (percent maximum fold activation)
Source text: A mass spectrometry based assay was used to identify modulators of SIRT1 activity. The mass spectrometry based assay utilizes a peptide having 20 amino acid residues as follows: Ac-EE-K(biotin)-GQSTSSHSK(Ac)NleSTEG-K(5TMR)-EE-NH2 (SEQ ID NO: 1) wherein K(Ac) is an acetylated lysine residue and Nle is a norleucine. The peptide is labeled with the fluorophore 5TMR (excitation 540 nm/emission 580 nm) at the C-terminus. The sequence of the peptide substrate is based on p53 with several modifications. In addition, the methionine residue naturally present in the sequence was replaced with the norleucine because the methionine may be susceptible to oxidation during synthesis and purification.
The mass spectrometry assay is conducted as follows: 0.5 μM peptide substrate and 120 μM βNAD^+ is incubated with 10 nM SIRT1 for 25 minutes at 25° C. in a reaction buffer (50 mM Tris-acetate pH 8, 137 mM NaCl, 2.7 mM KCl, 1 mM MgCl2, 5 mM DTT, 0.05% BSA). Test compounds may be added to the reaction as described above. […] After the 25 minute incubation with SIRT1, 10 μL of 10% formic acid is added to stop the reaction. Reactions are sealed and frozen for later mass spec analysis. Determination of the mass of the substrate peptide allows for precise determination of the degree of acetylation (i.e. starting material) as compared to deacetylated peptide (product).
A control for inhibition of sirtuin activity is conducted by adding 1 μL of 500 mM nicotinamide as a negative control at the start of the reaction (e.g., permits determination of maximum sirtuin inhibition). A control for activation of sirtuin activity is conducted using 10 nM of sirtuin protein, with 1 μL of DMSO in place of compound, to determine the amount of deacetylation of the substrate at a given timepoint within the linear range of the assay. This timepoint is the same as that used for test compounds and, within the linear range, the endpoint represents a change in velocity.
For the above assay, SIRT1 protein was expressed and purified as follows. […] The protein was expressed by induction with 1 mM IPTG as an N-terminal His-tag fusion protein at 18° C. overnight and harvested at 30,000×g. Cells were lysed with lysozyme in lysis buffer (50 mM Tris-HCl, 2 mM Tris[2-carboxyethyl]phosphine (TCEP), 10 μM ZnCl2, 200 mM NaCl) and further treated with sonication for 10 min for complete lysis. The protein was purified over a Ni-NTA column (Amersham) and fractions containing pure protein were pooled, concentrated and run over a sizing column (Sephadex S200 26/60 global). The peak containing soluble protein was collected and run on an Ion-exchange column (MonoQ). Gradient elution (200 mM-500 mM NaCl) yielded pure protein. This protein was concentrated and dialyzed against dialysis buffer (20 mM Tris-HCl, 2 mM TCEP) overnight. The protein was aliquoted and frozen at −80° C. until further use.

Compound	EC1.5 μM	Emax [%]
O=C(Nc1cccc2c(=O)cc(-c3cccnc3)oc12)c1ccccn1 [Compound 216]	C (EC1.5>25 μM)	< 200
O=C(Nc1cccc2c(=O)cc(-c3cccc(N4CCOCC4)c3)oc12)c1cscn1 [Compound 212]	B (EC1.5 1-25 μM)	> 200
Cc1cnc(NC(=O)c2cccc3c(=O)cc(-c4ccc(Br)cc4)oc23)s1 [Compound 223]		< 200
CS(=O)(=O)c1cccc(-c2cc(=O)c3cccc(NC(=O)c4ccccn4)c3o2)c1 [Compound 218]	B (EC1.5 1-25 μM)	< 200
Cn1ccc(C(=O)Nc2cccc3c(=O)cc(-c4ccccc4C(F)(F)F)oc23)n1 [Compound 259]	B (EC1.5 1-25 μM)	> 200
O=C(Nc1cccc2c(=O)cc(-c3ccccc3)oc12)c1cnccn1 [Compound 201]	C (EC1.5>25 μM)	< 200
O=C(Nc1cccc2c(=O)cc(-c3ccc(C(F)(F)F)cc3)oc12)c1cscn1 [Compound 228]	C (EC1.5>25 μM)	< 200
CS(=O)(=O)c1cccc(-c2cc(=O)c3cccc(C(=O)Nc4ccccn4)c3o2)c1 [Compound 221]	C (EC1.5>25 μM)	< 200
O=C(Nc1cccc2c(=O)cc(-c3cccc(N4CCOCC4)c3)oc12)c1ccccn1 [Compound 213]	C (EC1.5>25 μM)	< 200
O=C(Nc1cccc2c(=O)cc(-c3ccccc3OC(F)(F)F)oc12)c1cnccn1 [Compound 234]	A (EC1-5<1.0)	> 200
O=C(Nc1cccc2c(=O)cc(-c3cccnc3)oc12)c1cnccn1 [Compound 217]	C (EC1.5>25 μM)	< 200
Cn1cnc(C(=O)Nc2cccc3c(=O)cc(-c4ccccc4C(F)(F)F)oc23)c1 [Compound 256]	A (EC1-5<1.0)	> 200
Cc1cnc(NC(=O)c2cccc3c(=O)cc(-c4cccc(C(F)(F)F)c4)oc23)s1 [Compound 235]	C (EC1.5>25 μM)	< 200
COc1ccccc1-c1cc(=O)c2cccc(NC(=O)c3cnccn3)c2o1 [Compound 254]	C (EC1.5>25 μM)	< 200
O=C(Nc1cccc2c(=O)cc(-c3cccnc3)oc12)c1cscn1 [Compound 215, N-(4-oxo-2-(pyridin-3-yl)-4H-chromen-8-yl)thiazole-4-carboxamide]	C (EC1.5>25 μM)	< 200
O=C(Nc1cccc2c(=O)cc(-c3ccccc3C(F)(F)F)oc12)c1cnccn1 [Compound 261]	A (EC1-5<1.0)	> 200
O=C(Nc1cccc2c(=O)cc(-c3ccc(Br)cc3)oc12)c1cscn1 [Compound 232]		< 200
Cn1ccnc1C(=O)Nc1cccc2c(=O)cc(-c3ccccc3C(F)(F)F)oc12 [Compound 250]	A (EC1-5<1.0)	> 200
O=C(Nc1cccc2c(=O)cc(-c3cccc(C(F)(F)F)c3)oc12)c1cccnc1OC[C@@H](O)CO [Compound 246]	B (EC1.5 1-25 μM)	< 200
Cn1cc(C(=O)Nc2cccc3c(=O)cc(-c4ccccc4C(F)(F)F)oc23)cn1 [Compound 269]	B (EC1.5 1-25 μM)	> 200
Cc1cnc(NC(=O)c2cccc3c(=O)cc(-c4cccc(Br)c4)oc23)s1 [Compound 237]		< 200
CS(=O)(=O)c1ccccc1-c1cc(=O)c2cccc(NC(=O)c3ccccn3)c2o1 [Compound 241]	B (EC1.5 1-25 μM)	> 200
O=C(Nc1cccc2c(=O)cc(-c3cccc(C(F)(F)F)c3)oc12)c1cccnc1 [Compound 226]	C (EC1.5>25 μM)	< 200
O=C(Nc1nccs1)c1cccc2c(=O)cc(-c3cccc(N4CCOCC4)c3)oc12 [Compound 208]	C (EC1.5>25 μM)	< 200
O=C(Nc1cccc2c(=O)cc(-c3cccc(N4CCOCC4)c3)oc12)c1cnccn1 [Compound 214]	B (EC1.5 1-25 μM)	< 200
O=C(Nc1cccc2c(=O)cc(-c3cccc(C(F)(F)F)c3)oc12)c1ccccn1 [Compound 225]	C (EC1.5>25 μM)	< 200

The remaining lines, values ahead:

EC1.5 μM	Emax [%]	Compound
C (EC1.5>25 μM)	< 200	Cc1cnc(NC(=O)c2cccc3c(=O)cc(-c4ccccc4F)oc23)s1 [Compound 271]
B (EC1.5 1-25 μM)	> 200	O=C(Nc1cccc2c(=O)cc(-c3ccccc3Cl)oc12)c1cccc(CN2CCOCC2)c1 [Compound 330]
B (EC1.5 1-25 μM)	> 200	O=C(Nc1cccc2c(=O)cc(-c3ccccc3C(F)(F)F)oc12)c1cccc(N2CCOCC2)c1 [Compound 311]
B (EC1.5 1-25 μM)	> 200	O=C(Nc1cccc2c(=O)cc(-c3ccccc3Cl)oc12)c1cccnc1OCC(O)CO (centres unmarked) [Compound 332]
B (EC1.5 1-25 μM)	> 200	O=C(Nc1cccc2c(=O)cc(-c3c(Cl)cccc3Cl)oc12)c1cscn1 [Compound 303]
A (EC1-5<1.0)	> 200	O=C(Nc1cccc2c(=O)cc(-c3ccccc3C(F)(F)F)oc12)c1cccc(CN2CCCC2)n1 [Compound 320]
B (EC1.5 1-25 μM)	> 200	O=C(Nc1cccc2c(=O)cc(-c3c(Cl)cccc3Cl)oc12)c1cnccn1 [Compound 302]
B (EC1.5 1-25 μM)	> 200	Cn1cncc1C(=O)Nc1cccc2c(=O)cc(-c3ccccc3C(F)(F)F)oc12 [Compound 277]
A (EC1-5<1.0)	> 200	O=C(Nc1cccc2c(=O)cc(-c3ccccc3Cl)oc12)c1cccc(N2CCCC2)c1 [Compound 329]
B (EC1.5 1-25 μM)	< 200	O=C(Nc1cccc2c(=O)cc(-c3c(F)cccc3F)oc12)c1cscn1 [Compound 291]
A (EC1-5<1.0)	> 200	O=C(Nc1cccc2c(=O)cc(-c3c(F)cccc3Cl)oc12)c1cnccn1 [Compound 296]
A (EC1-5<1.0)	> 200	O=C(Nc1cccc2c(=O)cc(-c3ccccc3Cl)oc12)c1cnccn1 [Compound 280]
C (EC1.5>25 μM)	< 200	Cc1cnc(NC(=O)c2cccc3c(=O)cc(-c4cccc(F)c4F)oc23)s1 [Compound 295]
C (EC1.5>25 μM)	< 200	Cc1cnc(NC(=O)c2cccc3c(=O)cc(-c4ccccc4C(C)C)oc23)s1 [Compound 285]
A (EC1-5<1.0)	> 200	Cc1ccccc1-c1cc(=O)c2cccc(NC(=O)c3cnccn3)c2o1 [Compound 273, N-(4-oxo-2-o-tolyl-4H-chromen-8-yl)pyrazine-2-carboxamide]
B (EC1.5 1-25 μM)	< 200	Cc1cnc(NC(=O)c2cccc3c(=O)cc(-c4ccccc4OC(F)F)oc23)s1 [Compound 294]
C (EC1.5>25 μM)	< 200	O=C(Nc1cccc2c(=O)cc(-c3cc(F)ccc3Cl)oc12)c1cscn1 [Compound 301]
